Test results published in patent US20260337162A1, “TRYPTAMINE COMPOUNDS, COMPOSITIONS, AND METHODS OF USE” (priority 2022, published 2026).
Entries after “also recorded” stand apart in the source; their conditions may differ. Where two headings read alike, the source gives them in different places.

Columns and labels:
[1] = cited from earlier work
5-HT2A receptor [2] = biological target: T1, 5-HT2A receptor (Homo sapiens, UniProt P28223); test: Dose-response 5-HT2A functional assay (IP1 formation); assay type: cell-based; conditions: for 5-HT2A functional activity (in words): dose-response
T1 construct: expressed in transfected cells
T1 sequence (P28223 whole entry): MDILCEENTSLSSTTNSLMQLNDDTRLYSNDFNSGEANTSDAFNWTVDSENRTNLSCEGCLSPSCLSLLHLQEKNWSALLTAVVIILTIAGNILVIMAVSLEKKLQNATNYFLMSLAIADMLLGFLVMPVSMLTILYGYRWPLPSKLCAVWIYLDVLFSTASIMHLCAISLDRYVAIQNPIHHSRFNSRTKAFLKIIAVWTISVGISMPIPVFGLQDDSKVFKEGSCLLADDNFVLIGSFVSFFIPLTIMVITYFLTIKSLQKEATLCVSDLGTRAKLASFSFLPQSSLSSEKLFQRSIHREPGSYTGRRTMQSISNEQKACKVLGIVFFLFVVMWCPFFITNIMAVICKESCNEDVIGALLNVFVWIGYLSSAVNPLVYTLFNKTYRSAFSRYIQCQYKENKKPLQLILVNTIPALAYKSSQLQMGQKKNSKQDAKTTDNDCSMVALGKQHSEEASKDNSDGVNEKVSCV
Protocol: (§1) FIG. 27 is a graph showing the dose-response 5-HT2A functional assay results as a percent of control agonist response for compound II-2; tested in duplicate at the indicated concentrations and the EC50 values were determined by non-linear regression analysis of the concentration-response curves generated with mean replicate values using Hill equation curve fitting;
as §1, with “28” for “27”, “compounds III-2 and IV-21;” for “compound II-2;”, “fitting; and” for “fitting;”
(§2) 5-HT2 receptor-mediated Gq stimulation [phosphoinositide hydrolysis leading to the production of inositol phosphate 1 (IP1)]-canonical signaling pathways-were measured as previously described (Canal, C. E., Cordova-Sintjago, T., Liu, Y., Kim, M. S., Morgan, D., and Booth, R. G., 2013, Molecular pharmacology and ligand docking studies reveal a single amino acid difference between mouse and human serotonin 5-HT2A receptors that impacts behavioral translation of novel 4-phenyl-2-dimethylaminotetralin ligands, J Pharmacol Exp Ther 347, 705-716; Canal, C. E., Morgan, D., Felsing, D., Kondabolu, K., Rowland, N. E., Robertson, K. L., Sakhuja, R., and Booth, R. G., 2014, A Novel Aminotetralin-Type Serotonin (5-HT)(2C) Receptor —Specific Agonist and 5-HT2A Competitive Antagonist/5-HT2B Inverse Agonist with Preclinical Efficacy for Psychoses, J Pharm Exp Ther 349, 533), for example, with a homogeneous time-resolved fluorescence (HTRF) capable microplate reader (e.g., Mithras LB 940, Berthold) using commercially-available kits employing Fluorescence Resonance Energy Transfer (FRET) technology (e.g., IP-One HTRF (Cisbio) kits). Briefly, CHO-K1 or HEK293 cells expressing a single serotonergic 5-HT2 receptor subtype were incubated with test compounds and 5-HT or DOI (positive control) in stimulation buffer containing LiCl. After equilibration, the reaction was terminated with the donor and acceptor fluorescent conjugates in lysis buffer, and FRET was measured with a microplate reader (Berthold Mithras). Data were fit to non-linear curves to calculate potencies (e.g., EC50) and efficacies (e.g., EMAX), relative to positive controls (e.g., serotonin).
(§3) The results from tests of 5-HT2A functional activities of this series of compounds were also unexpected in the context of the unusual results observed from competition binding assays. […] Complete dose-response 5-HT2A and 5HT2B functional assays (measuring IP1 formation) were conducted for III-2 and IV-21 by a second, independent laboratory.

5-HT2A receptor [3] = biological target: T1, 5-HT2A receptor; test: 5-HT2A receptor functional screening assay (efficacy relative to maximal 5-HT response); assay type: cell-based; conditions: for activation at 0.5 µM: 500 nM
Protocol: as §2

in vivo = assay type: in vivo, adult, male C57BL/6J mice; conditions: 10 mg/kg PO; for concentration at 10 min / concentration at 0.5 h / concentration at 2 h: mouse, in vivo, po, 10 mg/kg; for concentration at 0.5 h: 30 min; for concentration at 2 h: 120 min
Protocol: PK profiles were established in adult, male C57BL/6J (Jackson Laboratories). Mice were housed in standard laboratory cages with ad libitum access to food and water, and were acclimated to the vivarium for at least one week prior to testing in a procedure room. In a typical experiment, mice were administered 10 mg/kg of test compound by oral gavage and plasma and brain samples were collected at 10, 30, and 120 min with n-3 for each time point. Quantification of the parent molecule was done using LC-MS/MS method (LLOQ, 0.9 nM).

5-HT2A receptor [4] = test: Head-twitch response (HTR) and behavioral observation in mice; assay type: in vivo, adult, male C57BL/6J mice; conditions: 10 mg/kg PO; for HTR (per min): 30 min counting; for elicitation of HTR (in words) / qualitative behavioral changes: mice
Protocol: The HTR assay was performed in adult, male C57BL/6J mice, procured from the Jackson Laboratory (Bar Harbor, Maine), as previously described (Canal, C. E., and Morgan, D., 2012, Head-twitch response in rodents induced by the hallucinogen 2,5-dimethoxy-4-iodoamphetamine: a comprehensive history, a re-evaluation of mechanisms, and its utility as a model, Drug Test Anal 4, 556-576; Saraf, T. S., Felsing, D. E., Armstrong, J. L., Booth, R. G., and Canal, C. E., 2021, Evaluation of lorcaserin as an anticonvulsant in juvenile Fmr1 knockout mice, Epilepsy Res 175, 106677). Mice were housed in standard laboratory cages with ad libitum access to food and water, and were acclimated to the vivarium for at least one week prior to testing in a procedure room. On the day of testing, mice were acclimated to the procedure room in their home cages for ≥60 min before administration of test compounds. Test articles were administered at 10 mg/kg by oral gavage and mice were placed immediately thereafter in a clear, polycarbonate box (46×20×20 cm), and HTRs were counted for 30 consecutive minutes, using hand-held tally counters, by two trained observers who were blind to treatment.

[5] = biological target: T2, human serotonin 5-HT2A receptor (Homo sapiens, UniProt P28223); test: Radioligand ([3H]LSD) competition binding, 5-HT2A receptor; conditions: for 5-HT2A receptor affinity (in words) / competition binding curve shape / Ki: [3H]LSD; for competition binding curve shape / competition for [3H]LSD-labeled 5-HT2A receptors: in words; for Ki: one-site fit Ki model; for competition for [3H]LSD-labeled 5-HT2A receptors: up to 10 μM for partial competition
T2 construct: host or cells: HEK293 (ATCC CRL-1573)
T2 sequence (P28223 whole entry): as above
Protocol: Binding affinity (Ki) and functional potency and efficacy (EC50 and EMAX) values of the compounds were measured.
Radioligand competition binding was performed as previously described (Saraf, T. S., Felsing, D. E., Armstrong, J. L., Booth, R. G., and Canal, C. E., 2021, Evaluation of lorcaserin as an anticonvulsant in juvenile Fmr1 knockout mice, Epilepsy Res 175, 106677), with minor modifications, using human cloned 5-HT2A receptors. Plasmids encoding human serotonin 5-HT2A receptor cDNA were procured from the cDNA Resource Center. Human embryonic kidney cells (HEK293, ATCC CRL-1573) were grown in a cell incubator in 100 mm dishes with antibiotic-free Dulbecco's modified Eagle's medium containing 10% fetal bovine serum. Cells were transfected at ~85% confluency with 5-15 μg cDNA using TransIT-2020 reagent (Mirus Bio, Madison, Wisconsin). After approximately 48 hours, cell membrane was collected via centrifugation. For all experiments, serotonin (5-HT) hydrochloride was used as a positive control, and mianserin hydrochloride (10 μM) was used to define non-specific binding. Each cell membrane homogenate expressing 5-HT2A receptors was incubated at room temperature in 96-well plates with [^3H] […] Following equilibration, each sample was filtered rapidly under vacuum through fiberglass filters presoaked in a buffer and washed by vacuum several times with an ice-cold buffer. Filters were soaked with scintillation fluid and counts per minute were detected using photodetectors (Microbeta Scintillation Counter). […] Data shown are the results from all experiments combined. As is known, G protein-coupled receptors, including the 5-HT2A receptor, can exist in multiple conformations, and ligands, typically agonist ligands, have unique affinities for these conformations of the receptor (Kenakin, T. Theoretical Aspects of GPCR-Ligand Complex Pharmacology, Chem. Rev. 2017, 117, 1, 4-20). […] However, for simplicity reasons, affinity of these compounds are reported herein as fitted to the single-site model. The data point for −10 samples is total specific binding (no compound present), and −4 was interpolated to complete the binding curves to 0 specific binding.

5-HT2B receptor = 5-HT2B receptor (Homo sapiens, UniProt P41595); test: Dose-response 5-HT2B functional assay (IP1 formation); assay type: cell-based; conditions: for EC50 / 5-HT2B functional activity (in words): IP1 formation; for 5-HT2B functional activity (in words): dose-response; for Emax: percent of control agonist response
5-HT2B receptor, sequence (P41595 whole entry): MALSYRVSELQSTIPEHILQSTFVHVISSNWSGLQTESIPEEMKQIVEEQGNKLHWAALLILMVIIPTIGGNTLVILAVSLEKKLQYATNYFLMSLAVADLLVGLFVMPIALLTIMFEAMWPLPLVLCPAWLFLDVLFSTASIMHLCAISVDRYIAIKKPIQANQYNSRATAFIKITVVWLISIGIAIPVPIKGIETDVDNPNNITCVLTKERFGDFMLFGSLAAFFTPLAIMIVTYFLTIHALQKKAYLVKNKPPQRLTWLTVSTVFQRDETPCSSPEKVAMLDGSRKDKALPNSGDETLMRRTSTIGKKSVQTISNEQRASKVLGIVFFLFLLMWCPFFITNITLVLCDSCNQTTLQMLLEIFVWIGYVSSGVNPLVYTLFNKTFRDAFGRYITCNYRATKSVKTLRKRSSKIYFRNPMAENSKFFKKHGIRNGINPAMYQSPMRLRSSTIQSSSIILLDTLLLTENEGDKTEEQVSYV
Protocol: as §1, with “29” for “27”, “5-HT2B” for “5-HT2A”, “compounds III-2 and IV-21;” for “compound II-2;”, “fitting.” for “fitting;”
as §2, §3

[6] = brain, read-out: PK data, Brain, 10 min
[7] = brain, read-out: PK data, Brain, 30 min
[8] = brain, read-out: PK data, Brain, 120 min
[9] = plasma, read-out: PK data, Plasma, 10 min
[10] = plasma, read-out: PK data, Plasma, 30 min
[11] = plasma, read-out: PK data, Plasma, 120 min

COc1ccc2[nH]cc(CCN(C)C)c2c1 [Compound 5-MeO-DMT, 5-methoxy-N,N-dimethyltryptamine]
duration of action ([1]; in vivo): 5 to 15 min | oral activity / oral bioavailability ([1]; oral): lacks oral bioavailability

CN(C)CCc1c[nH]c2ccccc12 [DMT, N,N-dimethyltryptamine]
oral activity / oral bioavailability ([1]; in vivo, po): not orally active | duration of action ([1]; in vivo): 5 to 15 min

FC(F)CCN(CCc1c[nH]c2ccccc12)CCC(F)F [II-2, N-(2-(1H-indol-3-yl)ethyl)-N-(3,3-difluoropropyl)-3,3-difluoropropan-1-amine]
EC50 (5-HT2A receptor [2]; IP1 formation): 0.596 µM | Emax (5-HT2A receptor [2]; percent of control agonist response): 79% | activation at 0.5 µM (5-HT2A receptor [3]): 1.4%

CN(CCc1c[nH]c2ccccc12)CCC(F)(F)F [II-6, N-(2-(1H-indol-3-yl)ethyl)-3,3,3-trifluoro-N-methylpropan-1-amine]
activation at 0.5 µM (5-HT2A receptor [3]): -7.7 ± 11.6% | activation at 50 µM (5-HT2A receptor [3]): -3.1 ± 9.6% | brain penetration (in words) (in vivo; mice): brain-penetrant | concentration at 10 min (in vivo; [6]): 1.55 to 12.6 µM | concentration at 0.5 h (in vivo; [7]): 0.72 to 4.71 µM | concentration at 2 h (in vivo; [8]): 0.021 to 1.13 µM | concentration at 10 min (in vivo; [9]): 0.82 to 7.76 µM | concentration at 0.5 h (in vivo; [10]): 0.39 to 3.14 µM | concentration at 2 h (in vivo; [11]): 0.007 to 0.44 µM | HTR (per min) (5-HT2A receptor [4]): <1 per min | elicitation of HTR (in words) (5-HT2A receptor [4]): did not elicit a HTR | qualitative behavioral changes (5-HT2A receptor [4]): reduced locomotion and “hiccup” responses | 5-HT2A receptor affinity (in words) [5]: high affinities | competition binding curve shape [5]: multiple slopes | Ki [5]: 0.012 µM | competition for [3H]LSD-labeled 5-HT2A receptors [5]: complete competition

Oc1cccc2[nH]cc(CCN(CCC(F)F)CCC(F)F)c12 [III-2, 3-(2-(bis(3,3-difluoropropyl)amino)ethyl)-1H-indol-4-ol]
EC50 (5-HT2A receptor [2]; IP1 formation): 0.383 µM | 5-HT2A functional activity (in words) (5-HT2A receptor [2]; IP1 formation): low potency, full agonist | activation at 0.5 µM (5-HT2A receptor [3]): 58.3% | activation at 50 µM (5-HT2A receptor [3]): > 50% | EC50 (5-HT2B receptor): 0.096 µM | 5-HT2B functional activity (in words) (5-HT2B receptor): partial agonist | Emax (5-HT2B receptor): 65%

CN(CCc1c[nH]c2cccc(O)c12)CCC(F)(F)F [III-6, 3-(2-(methyl (3,3,3-trifluoropropyl)amino)ethyl)-1H-indol-4-ol]
activation at 0.5 µM (5-HT2A receptor [3]): 53.5% | activation at 50 µM (5-HT2A receptor [3]): > 50% | 5-HT2A functional activity (in words) (5-HT2A receptor [3]; in vitro screening, II-15: both 500 nM and 50 μM): agonist activity; also recorded: behaved as an agonist | concentration at 10 min (in vivo; [6]): 0.2 to 1.3 µM | concentration at 0.5 h (in vivo; [7]): 0.12 to 0.42 µM | concentration at 2 h (in vivo; [8]): 0.003 to 0.02 µM | concentration at 10 min (in vivo; [9]): 0.17 to 0.62 µM | concentration at 0.5 h (in vivo; [10]): 0.072 to 0.18 µM | concentration at 2 h (in vivo; [11]): 0.002 to 0.016 µM | HTR (per min) (5-HT2A receptor [4]): <1 per min | elicitation of HTR (in words) (5-HT2A receptor [4]): did not elicit a HTR; also recorded: did not elicit the 5-HT2A-dependent HTR | qualitative behavioral changes (5-HT2A receptor [4]): reduced locomotion and “hiccup” responses; also recorded: “hiccup” like responses and caused hypolocomotion | 5-HT2A receptor affinity (in words) [5]: high affinities; also recorded: potent affinity | competition binding curve shape [5]: multiple slopes | Ki [5]: 0.012 µM | competition for [3H]LSD-labeled 5-HT2A receptors [5]: complete competition

COc1ccc2[nH]cc(CCN(C)CCC(F)(F)F)c2c1 [IV-21, 3,3,3-trifluoro-N-(2-(5-methoxy-1H-indol-3-yl)ethyl)-N-methylpropan-1-amine]
EC50 (5-HT2A receptor [2]; IP1 formation): > 3 µM | EC50 (5-HT2A receptor [2]; dose-response curve had not plateaued at 3 μM): > 3 µM | 5-HT2A functional activity (in words) (5-HT2A receptor [2]; IP1 formation): low potency, EC50>3 μM, agonist | activation at 0.5 µM (5-HT2A receptor [3]): 29.5% | EC50 (5-HT2B receptor): 0.394 µM | 5-HT2B functional activity (in words) (5-HT2B receptor): partial agonist | Emax (5-HT2B receptor): 62%

CN(C)CCc1c[nH]c2cccc(OP(=O)(O)O)c12 [Psilocybin, psilocybin]
MAO-mediated metabolism ([1]; in vivo): undergo MAO-mediated metabolism in vivo

CN(C)CCc1c[nH]c2cccc(O)c12 [psilocin]
MAO-mediated metabolism ([1]; in vivo): undergo MAO-mediated metabolism in vivo
